Results from patent US12018059B2, “Human amylin analog polypeptides and methods of use” (Intarcia Therapeutics, Inc., priority 2018, dated 2024).
Like-named read-outs stand apart in the source and are kept apart here. Starred links: 1 amine or outer side, 2 acyl side, 3 side chain; linkers in the order of their positions; H or OH if unused. Positions of bridges follow the written chain, without caps; N, C: chain ends. Residues, ends and D or L forms follow the SMILES beside them. Groups on a side chain read outwards from the residue. *: point of attachment. C20 diacid = O=C(O)CCCCCCCCCCCCCCCCCCC(=O)*; C18 diacid = O=C(O)CCCCCCCCCCCCCCCCC(=O)*; γGlu = O=C(O)[C@H](CCC(=O)[*:2])N[*:1]; AEEA = NCCOCCOCC(=O)O

How the values were obtained:
[1] = Pharmacokinetics, 3-hour intravenous infusion of linear (non-acylated) polypeptides; design: species or system Sprague-Dawley rats; conditions: rat, in vivo, 0.1 mg/kg
[2] = biological target: human amylin 3 receptor (hAMY3R) (Homo sapiens, UniProt O60896+P30988); test: cAMP accumulation functional assay in HEK293-CNG cells expressing hAMY3R; type: cell-based
Protocol: (§1) In the presence of the non-specific cAMP/cGMP phosphodiesterase inhibitor 3-isobutyl-1-methylxanthine (IBMX), accumulating cAMP can be measured in vitro using common detection methods. Thus, it is possible to estimate an in vitro potency (pEC50) for peptides activating each of these receptors using fit dose-response curves for cAMP accumulation.
(§2) Cells were carried in growth media for no more than 10 passages prior to testing.
(§3) Peptides were serially diluted in the same buffer as above for each given assay condition. Two assay control solutions consisting of 50 mcM forskolin (cAMP system maximum) or assay buffer only (cAMP system minimum) were also prepared in the appropriate stimulation buffers. Five microliters of each peptide-concentration, or assay control was added to triplicate wells and incubated for thirty minutes at room temperature. During this incubation step a 4× europium labelled cAMP tracer solution and a 4× Ulight®-anti-cAMP solution (consisting of an anti-cAMP monoclonal antibody labelled with Ulight™ dye) was prepared according to the manufacturer's protocol (PerkinElmer LANCE Ultra cAMP kit). Following this incubation, 5 mcL europium labelled cAMP and 5 mcL Ulight anti-cAMP antibody was added to wells. The plate was covered with an adhesive cover to prevent evaporation and incubated for 60 minutes at room temperature in the dark. Plates were read on an Envision fluorescent plate reader (PerkinElmer).
(§4) Test values were first normalized to the forskolin induced cAMP system maximum and system minimum averaged values in Excel using the formula: (test value−system minavg)/(system maxavg−system minavg)*100. Normalized test values represent a baseline corrected percentage of the system maximum cAMP response induced by forskolin. Normalized data was analyzed from triplicate tests and used to estimate the EC50 for each peptide on each receptor. Data was fit in GraphPad Prism software (v7.04) using a 4-parameter logistic curve model: Y=Bottom+(Top−Bottom)/(1+10^((Log EC50−X))). The Hill slope was constrained to 1.0. EC50 values were converted to pEC50 values using the formula: pEC50=−Log (EC50).

[3] = biological target: T1, human calcitonin receptor (hCTR) (Homo sapiens, UniProt P30988); test: cAMP accumulation functional assay in HEK293-CNG cells expressing hCTR; type: cell-based
T1 sequence (P30988 25-474): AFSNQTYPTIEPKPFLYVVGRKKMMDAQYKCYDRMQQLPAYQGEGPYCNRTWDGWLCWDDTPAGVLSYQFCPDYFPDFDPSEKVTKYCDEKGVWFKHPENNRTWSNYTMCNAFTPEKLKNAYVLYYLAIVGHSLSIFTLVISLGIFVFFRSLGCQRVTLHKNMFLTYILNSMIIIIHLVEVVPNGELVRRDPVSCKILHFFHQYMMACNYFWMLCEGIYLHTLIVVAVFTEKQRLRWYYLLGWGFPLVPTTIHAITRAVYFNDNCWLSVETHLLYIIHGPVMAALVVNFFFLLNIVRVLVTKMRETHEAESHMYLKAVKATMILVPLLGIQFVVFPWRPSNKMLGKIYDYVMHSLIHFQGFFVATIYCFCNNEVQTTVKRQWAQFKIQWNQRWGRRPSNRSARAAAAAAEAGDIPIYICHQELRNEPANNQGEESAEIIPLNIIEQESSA
Protocol: as §1, §2, §3, §4

[4] = 4% HSA, read-out: pEC50 hAMY3R 4% HSA (converted)
[5] = pEC50 hAMY3R 0.1% HSA, 0.1% HSA
[6] = hCTR 0% HSA, 0% HSA, read-out: pEC50 hCTR 0% HSA (converted)
[7] = hCTR 4% HSA, 4% HSA, read-out: pEC50 hCTR 4% HSA (converted)

Sequence of human amylin 3 receptor (hAMY3R) (O60896 24-148, one chain of several): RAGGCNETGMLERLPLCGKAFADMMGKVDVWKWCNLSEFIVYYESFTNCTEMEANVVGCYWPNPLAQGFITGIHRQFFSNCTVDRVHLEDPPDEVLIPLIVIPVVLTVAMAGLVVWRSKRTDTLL

| clearance ([1]; iv) | EC50 [2, 4] | EC50 [2, 5] | EC50 [3, 6] | EC50 ([3]; hCTR 0.1% HSA, 0.1% HSA) | EC50 [3, 7] | Structure (SMILES) | other results |
| --- | --- | --- | --- | --- | --- | --- | --- |
| 10.7 mL/min/kg |  |  |  |  |  | CC[C@H](C)[C@H](NC(=O)[C@@H]1CCCN1C(=O)CNC(=O)[C@H](Cc1ccccc1)NC(=O)[C@H](CC(N)=O)NC(=O)[C@H](CC(N)=O)NC(=O)[C@H](CO)NC(=O)[C@H](CO)NC(=O)[C@H](CCCCN)NC(=O)[C@H](Cc1c[nH]cn1)NC(=O)[C@H](CC(C)C)NC(=O)[C@H](CCC(=O)O)NC(=O)[C@H](CC(N)=O)NC(=O)[C@H](C)NC(=O)[C@H](CC(C)C)NC(=O)[C@H](CCCNC(=N)N)NC(=O)[C@H](CCC(N)=O)NC(=O)[C@@H](NC(=O)[C@H](C)NC(=O)[C@@H]1CSSC[C@H](NC(=O)[C@@H](N)CO)C(=O)N[C@@H](CC(N)=O)C(=O)N[C@@H]([C@@H](C)O)C(=O)N[C@@H](CO)C(=O)N[C@@H]([C@@H](C)O)C(=O)N1)[C@@H](C)O)C(=O)N[C@@H](CC(C)C)C(=O)N1CCC[C@H]1C(=O)N1CCC[C@H]1C(=O)N[C@H](C(=O)N[C@@H](CCCCN)C(=O)N[C@H](C(=O)NCC(=O)N[C@@H](CO)C(=O)N[C@@H](CCC(=O)O)C(=O)N[C@H](C(=O)N[C@@H](Cc1ccc(O)cc1)C(N)=O)[C@@H](C)O)C(C)C)[C@@H](C)O [Compound A57] (H-SCNTSTCATQRLANELHKSSNNFGPILPPTKVGSETY-NH2; disulfide 2-7) |  |
|  |  |  |  |  |  | CC[C@H](C)[C@H](NC(=O)[C@@H]1CCCN1C(=O)CNC(=O)[C@H](Cc1ccccc1)NC(=O)[C@H](CC(N)=O)NC(=O)[C@H](CC(N)=O)NC(=O)[C@H](CO)NC(=O)[C@H](CO)NC(=O)[C@H](CCCNC(=N)N)NC(=O)[C@H](Cc1c[nH]cn1)NC(=O)[C@H](CC(C)C)NC(=O)[C@H](Cc1ccc(O)cc1)NC(=O)[C@H](CC(N)=O)NC(=O)[C@H](C)NC(=O)[C@H](CC(C)C)NC(=O)[C@H](CCCNC(=N)N)NC(=O)[C@H](CCC(N)=O)NC(=O)[C@@H](NC(=O)[C@H](C)NC(=O)[C@@H]1CSSC[C@H](NC(=O)[C@@H](N)CO)C(=O)N[C@@H](CC(N)=O)C(=O)N[C@@H]([C@@H](C)O)C(=O)N[C@@H](C)C(=O)N[C@@H](CO)C(=O)N1)[C@@H](C)O)C(=O)N[C@@H](CC(C)C)C(=O)N1CCC[C@H]1C(=O)N1CCC[C@H]1C(=O)N[C@H](C(=O)N[C@@H](CC(N)=O)C(=O)N[C@H](C(=O)NCC(=O)N[C@@H](CO)C(=O)N[C@@H](CC(N)=O)C(=O)N[C@H](C(=O)N[C@@H](Cc1ccc(O)cc1)C(N)=O)[C@@H](C)O)C(C)C)[C@@H](C)O [Compound A61] (H-SCNTASCATQRLANYLHRSSNNFGPILPPTNVGSNTY-NH2; disulfide 2-7) | clearance ([1]; linear polypeptides, 3-hour intravenous infusion, 0.100 mg/kg, male Sprague-Dawley rats, read-out: CL): 22.8 mL/min/kg |
| 18.8 mL/min/kg |  |  |  |  |  | CC[C@H](C)[C@H](NC(=O)[C@@H]1CCCN1C(=O)CNC(=O)[C@H](Cc1ccccc1)NC(=O)[C@H](CC(N)=O)NC(=O)[C@H](CC(N)=O)NC(=O)[C@H](CO)NC(=O)[C@H](CO)NC(=O)[C@H](CCCCN)NC(=O)[C@H](CCC(N)=O)NC(=O)[C@H](CC(C)C)NC(=O)[C@H](Cc1ccccc1)NC(=O)[C@H](CC(N)=O)NC(=O)[C@H](C)NC(=O)[C@H](CC(C)C)NC(=O)[C@H](CCCNC(=N)N)NC(=O)[C@H](CO)NC(=O)[C@@H](NC(=O)[C@H](C)NC(=O)[C@@H]1CSSC[C@H](NC(=O)[C@@H](N)CO)C(=O)N[C@@H](CC(N)=O)C(=O)N[C@@H]([C@@H](C)O)C(=O)N[C@@H](CO)C(=O)N[C@@H]([C@@H](C)O)C(=O)N1)[C@@H](C)O)C(=O)N[C@@H](CC(C)C)C(=O)N1CCC[C@H]1C(=O)N1CCC[C@H]1C(=O)N[C@H](C(=O)N[C@@H](CCCCN)C(=O)N[C@H](C(=O)NCC(=O)N[C@@H](CO)C(=O)N[C@@H](CCC(=O)O)C(=O)N[C@H](C(=O)N[C@@H](Cc1ccc(O)cc1)C(N)=O)[C@@H](C)O)C(C)C)[C@@H](C)O [Compound A62] (H-SCNTSTCATSRLANFLQKSSNNFGPILPPTKVGSETY-NH2; disulfide 2-7) |  |
| 20 mL/min/kg |  |  |  |  |  | CC[C@H](C)[C@H](NC(=O)[C@@H]1CCCN1C(=O)CNC(=O)[C@H](Cc1ccccc1)NC(=O)[C@H](CC(N)=O)NC(=O)[C@H](CC(N)=O)NC(=O)[C@H](CO)NC(=O)[C@H](CO)NC(=O)[C@H](Cc1c[nH]cn1)NC(=O)[C@@H](NC(=O)[C@H](CC(C)C)NC(=O)[C@H](Cc1ccc(O)cc1)NC(=O)[C@H](CC(N)=O)NC(=O)[C@H](C)NC(=O)[C@H](CC(C)C)NC(=O)[C@H](CCCNC(=N)N)NC(=O)[C@H](CO)NC(=O)[C@@H](NC(=O)[C@H](C)NC(=O)[C@@H]1CSSC[C@H](NC(=O)[C@@H](N)CO)C(=O)N[C@@H](CC(N)=O)C(=O)N[C@@H]([C@@H](C)O)C(=O)N[C@@H](CO)C(=O)N[C@@H]([C@@H](C)O)C(=O)N1)[C@@H](C)O)C(C)C)C(=O)N[C@@H](CC(C)C)C(=O)N1CCC[C@H]1C(=O)N1CCC[C@H]1C(=O)N[C@H](C(=O)N[C@@H](CCCCN)C(=O)N[C@H](C(=O)NCC(=O)N[C@@H](CO)C(=O)N[C@@H](CCC(=O)O)C(=O)N[C@H](C(=O)N[C@@H](Cc1ccc(O)cc1)C(N)=O)[C@@H](C)O)C(C)C)[C@@H](C)O [Compound A111] (H-SCNTSTCATSRLANYLVHSSNNFGPILPPTKVGSETY-NH2; disulfide 2-7) |  |
|  | 1 nM | 0.0251 nM | 0.00501 nM | 0.2 nM | 7.94 nM | CC[C@H](C)[C@H](NC(=O)[C@@H]1CCCN1C(=O)CNC(=O)[C@H](Cc1ccccc1)NC(=O)[C@H](CC(N)=O)NC(=O)[C@H](CC(N)=O)NC(=O)[C@H](CO)NC(=O)[C@H](CO)NC(=O)[C@H](CCCCN)NC(=O)[C@H](Cc1c[nH]cn1)NC(=O)[C@H](CC(C)C)NC(=O)[C@H](CCC(=O)O)NC(=O)[C@H](CC(N)=O)NC(=O)[C@H](C)NC(=O)[C@H](CC(C)C)NC(=O)[C@H](CCCNC(=N)N)NC(=O)[C@H](CCC(N)=O)NC(=O)[C@@H](NC(=O)[C@H](C)NC(=O)[C@@H]1CSSC[C@H](NC(=O)[C@@H](N)CCCCNC(=O)COCCOCCNC(=O)COCCOCCNC(=O)CC[C@H](NC(=O)CCCCCCCCCCCCCCCCC(=O)O)C(=O)O)C(=O)N[C@@H](CC(N)=O)C(=O)N[C@@H]([C@@H](C)O)C(=O)N[C@@H](CO)C(=O)N[C@@H]([C@@H](C)O)C(=O)N1)[C@@H](C)O)C(=O)N[C@@H](CC(C)C)C(=O)N1CCC[C@H]1C(=O)N1CCC[C@H]1C(=O)N[C@H](C(=O)N[C@@H](CCCCN)C(=O)N[C@H](C(=O)NCC(=O)N[C@@H](CO)C(=O)N[C@@H](CCC(=O)O)C(=O)N[C@H](C(=O)N[C@@H](Cc1ccc(O)cc1)C(N)=O)[C@@H](C)O)C(C)C)[C@@H](C)O [Compound A113] (H-K([AEEA-AEEA-γGlu-C18 diacid])CNTSTCATQRLANELHKSSNNFGPILPPTKVGSETY-NH2; disulfide 2-7) |  |
|  | 3.16 nM | 0.0631 nM | 0.00631 nM | 0.316 nM | 12.6 nM | CC[C@H](C)[C@H](NC(=O)[C@@H]1CCCN1C(=O)CNC(=O)[C@H](Cc1ccccc1)NC(=O)[C@H](CC(N)=O)NC(=O)[C@H](CC(N)=O)NC(=O)[C@H](CO)NC(=O)[C@H](CO)NC(=O)[C@H](CCCCN)NC(=O)[C@H](Cc1c[nH]cn1)NC(=O)[C@H](CC(C)C)NC(=O)[C@H](CCC(=O)O)NC(=O)[C@H](CC(N)=O)NC(=O)[C@H](C)NC(=O)[C@H](CC(C)C)NC(=O)[C@H](CCCNC(=N)N)NC(=O)[C@H](CCC(N)=O)NC(=O)[C@@H](NC(=O)[C@H](C)NC(=O)[C@@H]1CSSC[C@H](NC(=O)[C@@H](N)CCCCNC(=O)CC[C@H](NC(=O)CCCCCCCCCCCCCCCCCCC(=O)O)C(=O)O)C(=O)N[C@@H](CC(N)=O)C(=O)N[C@@H]([C@@H](C)O)C(=O)N[C@@H](CO)C(=O)N[C@@H]([C@@H](C)O)C(=O)N1)[C@@H](C)O)C(=O)N[C@@H](CC(C)C)C(=O)N1CCC[C@H]1C(=O)N1CCC[C@H]1C(=O)N[C@H](C(=O)N[C@@H](CCCCN)C(=O)N[C@H](C(=O)NCC(=O)N[C@@H](CO)C(=O)N[C@@H](CCC(=O)O)C(=O)N[C@H](C(=O)N[C@@H](Cc1ccc(O)cc1)C(N)=O)[C@@H](C)O)C(C)C)[C@@H](C)O [Compound A119] (H-K([γGlu-C20 diacid])CNTSTCATQRLANELHKSSNNFGPILPPTKVGSETY-NH2; disulfide 2-7; N-terminus assumed) | EC50 ([2]; 0% HSA, read-out: pEC50 hAMY3R 0% HSA (converted)): 0.00126 nM |
